Consider eleven compounds from publication PMC9000738, “Diterpenoid Alkaloids Isolated from Delphinium brunonianum and Their Inhibitory Effects on Hepatocytes Lipid Accumulation” (Molecules, 2022).

Usually IC50 stands for the concentration needed to halve the response being measured.

One series relates to BRL cells. The experiment in a line: Cell viability by CCK-8 assay in BRL cells. The following applies: Rattus norvegicus. The format is cell-based. The protocol: The cell viability (%) of the isolated diterpenoid alkaloids in the concentration range of 1–500 μM and the time-effectiveness of them for 24 h and 48 h were evaluated using CCK-8 assay (Figure 4). […] The IC50 values of 15 compounds and positive drug were calculated by SPSS 23.0 software. […] Therefore, through the entire experiments, the maximum concentration of tested diterpenoid alkaloids was limited to 10 μM, a concentration about one-tenth to one-fiftieth of IC50 of them. In addition, optimum dosage of modeling agent (FFA) was also selected as the concentration of 0.5 mM through CCK-8 assay (Figure S77).
Buffalo rat liver (BRL) cells were obtained from the Cell Bank, Committee for Typical Culture Preservation, Chinese Academy of Sciences. BRL cells were cultured in DMEM (containing 10% fetal bovine serum and 1% penicillin/streptomycin) under humidified 5% CO2 (v/v) atmosphere at 37 °C. To determine the cell viability of compounds 1–15, the CCK-8 assay was performed. The fifteen isolated compounds were dissolved in DMSO and diluted 1:1000 in culture medium, respectively. Cells were seeded in 96-well plates (6 × 10^3 cells per well) for 24 h incubation and then treatment with different concentrations (1, 10, 20, 50, 100, 200, and 500 µM) of each compound for 24 h or 48 h, respectively. CCK-8 solution (10% of the total solution) was added to each well, further incubated for 1 h at 37 °C. The absorbance was measured at 450 nm using a Multimode Microplate Reader.
For orientation: Tetrazolium assays rely on reduction of a dye to a coloured formazan, in cell work by metabolically active cells.

Series [1] relates to FFA-induced BRL cells. The class given is cell-based, rat. The following applies: for TG level (TG secretion, lipid accumulation): 10 μM, 24 h, vs. model group; for TG level (TG secretion, lipid accumulation) / TC level / TG level / ALT level / AST level: 0.5 mM FFA-induced BRL cells; for TC level / TG level / ALT level / AST level: 1, 5 or 10 µM; for ALT level / AST level: medium; for inhibitory effects on hepatocytes lipid accumulation: FFA-induced BRL cells, 1, 5 and 10 µM. The protocol: We selected FFA-induced BRL cells (oleate and palmitate ratio was 2:1) to establish a cellular NAFLD model, which is a widely used method by researchers for studying diseases related to hepatocytes lipid accumulation. The TG secretion was measured to preliminarily evaluate the inhibitory effect on lipid accumulation of 15 isolated alkaloid compounds. […] Compounds 1–15 were tested at a concentration of 10 μM in FFA-induced BRL cells to determine their inhibitory effects on hepatocytes TG secretion (Figure 5). Atorvastatin calcium (ATC) is a statin cholesterol-lowering drug and widely used in the clinical treatment of hyperlipidemia and NAFLD, etc.. Therefore, we used atorvastatin calcium (ATC, 10 µM) as a positive control drug.
BRL cells were grown in 24-well plates until 70–80% confluence. Subsequently, 0.5 mM FFA (oleate and palmitate in a final ratio of 2:1) was applied for 24 h to establish an in vitro model of hepatocytes lipid accumulation in the model group, treated with 0.5 mM FFA combination with 1, 5, or 10 µM isolated compounds for 24 h in alkaloids groups. A portion of 1% bovine serum albumin (BSA) was added in BRL cells of the control group. Then, the medium of each group was collected for determination of ALT and AST levels by commercial kits. After removing the medium, 200 µL of 0.25% trypsin was added to digest the cells in 37 °C for 2 min. Then, 500 µL of DMEM that contained 10% fetal bovine serum (FBS) was added to stop digesting. Cells suspension was centrifuged at 800 r/min for 3 min. After adding 200 µL of ethanol, cells were collected and crushed by ultrasonic cell disruptor at 4 °C. Part of the cell fragmentation solution was used for the determination of cell protein content, the other part was used to determine TG and TC levels by commercial kits according to the manufacturer’s instruction.

In series [2] the test system is FFA-induced BRL cells. The experiment in a line: Oil red O staining of lipid droplets and quantitative analysis in FFA-induced BRL cells. The class given is cell-based, rat. The conditions noted are these: 10 µM, 0.5 mM FFA-induced BRL cells; for fold change of red-stained cell area (quantitative analysis of lipid accumulation): ImageJ, p < 0.001 vs. model group; for lipid accumulation by oil red O staining: vs. model group. The protocol:
Combined with the oil red O staining and quantitative analysis assay, the effect of reducing lipid accumulation of compounds 4, 5, 7, 8, and 12 was performed in FFA-induced BRL cells. […] Quantitative analysis of lipid accumulation was also analyzed by ImageJ 1.8.0 software by calculating the area of red-stained cells (Figure 7C).
BRL cells were plated in 96-well plates until reaching 70–80% confluence and treated with 0.5 mM FFA mixture and the tested compounds for 24 h. Controls were incubated for the same period in complete medium.
After 24 h of incubation, the cells were fixed with 5% formalin solution for 30 min and then incubated with oil red O working solution for 15 min at room temperature. After that, the cells were washed once with 60% isopropanol and three times with water. The nuclei were stained with hematoxylin solution for 2 min at room temperature. Then, the operation of oil red O staining was referred to the previous research. Finally, the red oil droplets were observed using an optical microscope.

Series [3] relates to FFA-induced HepG2 cells. The experiment in a line: Oil red O staining in FFA-induced HepG2 cells. The format is cell-based. The conditions noted are these: 10 µM, 1 mM FFA-induced HepG2 cells. The protocol: Figure S79. Oil red O staining of lipid droplets and quantitative analysis in HepG2 cells treated with or without 1 mM FFA mixed compounds 4, 5, 7, 8, and 12 (10 µM), 400 ×; The images shown about quantitative analysis s of red stained cells are representatives of 3 replicates of each. The values are presented as mean ± SEM. ### p < 0.001, vs. the control group; * p < 0.05, ** p < 0.01, vs. the model group. […]

Series [4] deals with FFA-induced HepG2 cells. The experiment in a line: TG secretion assay in FFA-induced HepG2 cells. The format is cell-based. The conditions noted are these: 10 µM, 1 mM FFA-induced HepG2 cells. The protocol: Figure S78. Effects of compounds (4, 5, 7, 8, and 12) on TG level in FFA-induced HepG2 cells. HepG2 cells were treated with a mixture of 1 mM FFA in the absence o r presence of compounds (4, 5, 7, 8, and 12) at the concentration of 10 µM. The values are presented as mean ± SEM of six independent experiments. ### p < 0.001, vs. the control group; * p < 0.05, ** p < 0.01, vs. the model group. […]

Where [5] appears, read: BRL cells, CCK-8 assay, concentration range 1–500 μM, incubation time (24 h or 48 h) not stated, read-out: IC50.

The structures appear in SMILES notation. Like-named read-outs stand apart in the source and are kept apart here.

Consider `CCN1CC2(COC(=O)c3ccccc3NC(=O)C(C)CC(=O)O)CCC(OC)C34C5CC6C(OC)CC(O)(C5C6OC)C(O)(C(OC)C23)C14` (stereo not shown) [Compound 14, shawurensine], for which the IC50 in the series with BRL cells was greater than 500 µM. The “TG level (TG secretion, lipid accumulation)” value in the series with FFA-induced BRL cells [1] is reported as “had the effect of inhibiting the lipid accumulation (TG secretion)”.
On to `CC(C)c1c(C(=O)Nc2ccccc2)c(-c2ccccc2)c(-c2ccc(F)cc2)n1CC[C@@H](O)C[C@@H](O)CC(=O)O` [positive (ATC), Atorvastatin calcium, reference compound], for which the IC50 in the series on BRL cells (setting [5]) amounted to 88.4 µM.
For `CCN1CC2(COC)CCC(O)C34C5CC6C(OC)CC7(OCOC7(C(OC)C23)C14)C5C6O` (stereo not shown) [Compound 8, delbrunine], the half-inhibitory concentration (IC50) in the series with BRL cells (setting [5]) was found to be 408 µM. Moreover, in the series on FFA-induced BRL cells [1], the “TG level (TG secretion, lipid accumulation)” value was “better than that of the positive control drug”; the TC level result was “ameliorated”; the TG level result is recorded as “ameliorated”; the ALT level result was “ameliorated”. Also, in the series with FFA-induced BRL cells [1], the AST level entry is given as “ameliorated” and the “inhibitory effects on hepatocytes lipid accumulation” value (“inhibitory effects” below) is “strong inhibitory effects on hepatocytes lipid accumulation in a dose-dependent manner”. Also, in the series on FFA-induced BRL cells [2], the “fold change of red-stained cell area (quantitative analysis of lipid accumulation)” value (from here on “fold change of red-stained cell area”) is listed as “less than the model group” and the “lipid accumulation by oil red O staining” value is “significantly reduce lipid accumulation”. Further, the “lipid accumulation by oil red O evaluation” value in the series with FFA-induced HepG2 cells [3] was “good inhibitory effects on lipid accumulation”. Besides, the “lipid accumulation by TG secretion assay” value in the series with FFA-induced HepG2 cells [4] is listed as “good inhibitory effects on lipid accumulation”.
Turning to `CCN1C[C@]2(C)CC[C@H](OC)[C@@]34C1[C@@]1(OCO[C@@]15C[C@H](OC)[C@H]1C[C@@H]3[C@@H]5[C@H]1O)[C@@H](O)[C@H]24` [Compound 6, delpheline], in the series on BRL cells, the 50% inhibitory concentration (IC50) was greater than 500 µM.
`CCN1CC2(COC)CCC(OC)C34C5CC6C(OC)CC(O)(C5C6O)C(O)(C(OC)C23)C14` (stereo not shown) [Compound 13, browniine] came in with an IC50 in the series on BRL cells greater than 500 µM.
In the case of `CCN1C[C@]2(COC(=O)c3ccccc3N)CC[C@H](OC)[C@]34C1[C@](O)([C@@H](OC)[C@H]23)[C@@]1(O)C[C@H](OC)[C@H]2C[C@@H]4[C@@H]1[C@H]2OC` [Compound 11, anthranoyllycoctonine], in the series with BRL cells (setting [5]), the IC50 is 300 to 500 µM.
As for `CCN1CC2(COC(=O)c3ccccc3NC(=O)CC(C)C(=O)O)CCC(OC)C34C5CC6C(OC)CC(O)(C5C6OC)C(O)(C(OC)C23)C14` (stereo not shown) [Compound 15, delavaine B], in the series with BRL cells, the IC50 was greater than 500 µM. The “TG level (TG secretion, lipid accumulation)” value with FFA-induced BRL cells [1] was “had the effect of inhibiting the lipid accumulation (TG secretion)”.
In turn, `CCN1CC2(COC)CCC(O)C34C5CC6C(OC)CC(O)(C5C6O)C(O)(C(OC)C23)C14` (stereo not shown) [Compound 9, delcosine] gave an IC50 in the series with BRL cells greater than 500 µM.
On to `CCN1CC2(COC)CCC(OC)C34C5CC6C(OC)CC7(OCOC7(C(OC)C23)C14)C5C6O` (stereo not shown) [Compound 5, delbruline], for which the IC50 in the series on BRL cells (setting [5]) was greater than 500 µM. Further, in the series on FFA-induced BRL cells [1], the “TG level (TG secretion, lipid accumulation)” value is given as “better than that of the positive control drug”; the TC level entry is on record as “ameliorated”; the TG level result is “ameliorated”; the ALT level result was “ameliorated”. In addition, in the series on FFA-induced BRL cells [1], the AST level result is “ameliorated” and the “inhibitory effects” value is “strong inhibitory effects on hepatocytes lipid accumulation in a dose-dependent manner”. In addition, in the series on FFA-induced BRL cells [2], the “fold change of red-stained cell area” value is given as “less than the model group” and the “lipid accumulation by oil red O staining” value is given as “significantly reduce lipid accumulation”. For the same compound, the “lipid accumulation by oil red O evaluation” value in the series with FFA-induced HepG2 cells [3] is given as “good inhibitory effects on lipid accumulation”. The “lipid accumulation by TG secretion assay” value in the series on FFA-induced HepG2 cells [4] is “good inhibitory effects on lipid accumulation”.
With `CCN1CC2(COC)CCC(O)C34C5CC6C(OC)CC7(OCOC7(C(O)C23)C14)C5C6OC` (stereo not shown) [Compound 10, uraphine], in the series with BRL cells, the IC50 was greater than 500 µM.
As to `CCN1C[C@]2(CO)CC[C@H](OC)[C@@]34[C@@H]5C[C@H]6[C@H](OC)[C@@H]5[C@](O)(C[C@@H]6OC)[C@](O)([C@@H](OC)[C@H]23)[C@@H]14` [Compound 7, lycoctonine], in the series with BRL cells (setting [5]), the IC50 is greater than 500 µM. In addition, in the series on FFA-induced BRL cells [1], the “TG level (TG secretion, lipid accumulation)” value is listed as “better than that of the positive control drug”; the TC level result is on record as “ameliorated”; the TG level result is “ameliorated”; the ALT level entry was “ameliorated”. Besides, in the series with FFA-induced BRL cells [1], the AST level result is “ameliorated” and the “inhibitory effects” value is recorded as “strong inhibitory effects on hepatocytes lipid accumulation in a dose-dependent manner”. In addition, in the series on FFA-induced BRL cells [2], the “fold change of red-stained cell area” value is on record as “less than the model group” and the “lipid accumulation by oil red O staining” value is given as “significantly reduce lipid accumulation”. Further, the “lipid accumulation by oil red O evaluation” value in the series on FFA-induced HepG2 cells [3] is reported as “good inhibitory effects on lipid accumulation”. Further, in the series with FFA-induced HepG2 cells [4], the “lipid accumulation by TG secretion assay” value is on record as “good inhibitory effects on lipid accumulation”.
